The test system of one data set is MysD. The experiment in a line: In vitro MysD reaction with amino acid substrates (LC-HRMS detection of MAA products). Particulars: 5 mM amino acid, 50 uM mycosporine-glycine, 5 mM ATP, 0.5 uM MysD, pH 8.0, room temperature, 4 hours. The class given is biochemical, Nostoc linckia NIES-25. The method, then:
The reaction solution contained 50 mM HEPES, pH 8.0, 10 mM MgCl2, 50 uM mycosporine-glycine (MG), 5 mM amino acid substrates, and 5 mM ATP. The reactions were initiated by adding 0.5 uM MysD and then carried out at room temperature for 4 hours. The reactions were then terminated and centrifuged.
In Vitro MysD Reactions. MG was purified from extracts of E. coli expressing MysAB2C by HPLC and used as the substrate for the MysD reactions. The quality of MG was calculated based on its extinction coefficient (28,100 M^−1cm^−1). The MysD reactions included MG (50 μM), Mg^2+ (10 mM), unnatural amino acid substrates (5 mM), and ATP (5 mM) in 50 mM HEPES, pH 8.0. The reactions were initiated by adding MysD (0.5 μM) and then incubated at room temperature for 4 hours. All reactions were quenched by heat inactivation at 95° C. for 10 min. After centrifugation at 20,000×g for 15 min, the clear supernatants were collected for LC-HRMS analysis.
The reactions were terminated and then analyzed in the HPLC and/or LC-MS analysis.
HPLC and LC-MS Analysis. Samples were analyzed on a Shimadzu Prominence UHPLC system (Kyoto, Japan) coupled with a PDA detector. Unless stated elsewhere, the following HPLC procedure was performed. The compounds were separated on a Phenomenex Luna C8 column (4.6×250 mm, 5 μm) using the following HPLC program: 2% B for 15 min, 2-90% B gradient in 2 min, 90% B in 2 min, 90-2% in 2 min, and re-equilibration in 2% B for 6 min. The A phase was water with 0.1% formic acid and the B phase was methanol. The flow rate was set at 0.5 mL/min. LC-HRMS and HRMS/MS experiments were conducted on a Thermo Scientific Q Exactive Focus mass spectrometer with a Dionex Ultimate RSLC 3000 uHPLC system, equipped with the H-ESI II probe on an Ion Max API Source. Methanol (B)/water (A) containing 0.1% formic acid were used as mobile phases. The eluents from the first 3 min were diverted to waste by a diverting valve. MS1 signals were acquired under the Full MS positive ion mode, covering a mass range of m/z 150-2000, with resolution at 35 000 and AGC target at 1×10^6.

The conditions of data set [1]: cited from earlier work.

We go through six compounds from patent US20260272801A1, “BIOCATALYTIC SYNTHESIS OF UNNATURAL MYCOSPORINE-LIKE AMINO ACIDS” (University of Florida Research Foundation, Incorporated, priority 2022, published 2026).

SMILES strings stand for the structures. “Also recorded” adds a separate entry of the source.

On to `C[C@@H](O)[C@H](N)C(=O)O` [L-threonine], for which the “use as amino acid substrate by MysD to produce MAA products” value (from here on “use as amino acid substrate by MysD”) in the data set with MysD was “could be used by MysD; also recorded: best substrate”. The same measure, in the same setting: in the case of `NC[C@@H](N)C(=O)O` [(R)-2,3-diaminopropionic acid] it was “not able to take”. Regarding `COC1=C(NCC(=O)O)C[C@@](O)(CO)CC1=O` [MG, mycosporine-glycine], the extinction coefficient in data set [1] (used to calculate the quantity of MG) was 28,100 M^−1cm^−1. Consider `NC[C@H](N)C(=O)O` [(S)-2,3-diaminopropionic acid], for which the “use as amino acid substrate by MysD” value in the data set on MysD was “could be used by MysD”. Consider `C=C[C@H](N)C(=O)O` [(S)-2-aminobut-3-enoic acid], for which, in the data set on MysD, the “use as amino acid substrate by MysD” value is “could be used by MysD”. For `COC1=C(NCC(=O)O)C[C@@](O)(CO)CC1=N[C@H](C(=O)O)[C@@H](C)O` [porphyra-334], the maximal absorption wavelength in data set [1] (natural MAA given as comparison value) is 334 nm.
